The values below come from PMC7770057 (Journal of medicinal chemistry, 2020).

For orientation: GI50 means the concentration at which growth is held to half of that of the control.

The subject of one data set is MEK1/2. To be noted: HT-29 cells, 0.3, 1 and 3 μM; previous study; cited from earlier work.
In the next data set the test system is SK-MEL-28 cells. In words: Antiproliferation. It counts as cell-based. To be noted: Homo sapiens, SK-MEL-28, 72 h, read-out: SK-MEL-28 GI50.
The nature of data set [1]: In vivo mouse PK study, single IP injection. Also noted: species or system male Swiss Albino mice. The note with it: mice, single IP 50 mg/kg.

“Also recorded” adds a separate entry of the source.

`Cc1ncsc1-c1ccc(CNC(=O)[C@@H]2C[C@@H](O)CN2C(=O)[C@@H](NC(=O)CCCCCCCCCCNCCCONC(=O)c2ccc(F)c(F)c2Nc2ccc(I)cc2F)C(C)(C)C)cc1` [Compound 14, (2S,4R)-1-((S)-20-(tert-Butyl)-1-(3,4-difluoro-2-((2-fluoro-4-iodophenyl)amino)phenyl)-1,18-dioxo-3-oxa-2,7,19-triazahenicosan-21-oyl)-4-hydroxy-N-(4-(4-methylthiazol-5-yl)benzyl)pyrrolidine-2-carboxamide]: the “MEK1/2 degradation (Western blot, words)” value in the data set on MEK1/2 is “significantly degrade MEK1/2 protein levels”.

`CCCS(=O)(=O)Nc1ccc(F)c(C(=O)c2c[nH]c3ncc(-c4ccc(Cl)cc4)cc23)c1F` [PLX4032]: in the data set on SK-MEL-28 cells, the GI50 was ~100 nM. For `Cc1ncsc1-c1ccc([C@H](C)NC(=O)[C@@H]2C[C@@H](O)CN2C(=O)[C@@H](NC(=O)CCCCCCCCCCCNCCCCONC(=O)c2ccc(F)c(F)c2Nc2ccc(I)cc2F)C(C)(C)C)cc1` [Compound 27, (2S,4R)-1-((S)-22-(tert-Butyl)-1-(3,4-difluoro-2-((2-fluoro-4-iodophenyl)amino)phenyl)-1,20-dioxo-3-oxa-2,8,21-triazatricosan-23-oyl)-4-hydroxy-N-((S)-1-(4-(4-methylthiazol-5-yl)phenyl)ethyl)pyrrolidine-2-carboxamide], the “clearance comparison” value in data set [1] was “cleared more slowly than compound 24”. Also, the “plasma exposure comparison” value in data set [1] (8 h period, 50 mg/kg) was “better plasma exposure than compound 24; also recorded: higher than that of the previously published MEK degrader 3”. Besides, the “tolerability” value in data set [1] (no clinical signs or adverse effects observed) is reported as “very well tolerated”.
